Experimental data taken from PMC3576842 (Cancer discovery, 2012).
pIC50: −log10 of the molar value. Entries after “also recorded” stand apart in the source; their conditions may differ. One block for each molecule: values may come before it.

What was measured:
[1] = human, in vivo; cited from earlier work
PC-9 cells = assay: High-throughput tumor cell line screening / cell viability assay; assay type: cell-based, human; settings: for effect on growth: even at high concentrations
HCC827 cells = assay: as above; assay type: cell-based, human
recombinant EGFR T790M = recombinant EGFR T790M (Homo sapiens, UniProt P00533, T790M); assay: EGFR autophosphorylation assay; assay type: biochemical; settings: for inhibition of EGFR T790M autophosphorylation: ATP, 15 min; for concentrations as low as which inhibit EGFR T790M autophosphorylation: EGFR T790M mutants
[2] = target: recombinant EGFR L858R/T790M (Homo sapiens, UniProt P00533, L858R/T790M); assay: EGFR autophosphorylation assay; assay type: biochemical; settings: ATP, 15 min
[3] = target: EGFR L858R/T790M in NR6 cells (Homo sapiens, UniProt P00533, L858R/T790M); assay: Ligand-induced; assay type: cell-based; settings: 16 hr, TGF-α 15 min
[4] = target: wild-type EGFR in NR6 cells (Homo sapiens, UniProt P00533); assay: Ligand-induced; assay type: cell-based; settings: for inhibition of ligand-induced EGFR phosphorylation: NR6 wild-type EGFR, TGF-α
[5] = target: EGFR del E746_A750/T790M in erlotinib-resistant PC-9 cells (Homo sapiens, UniProt P00533, DEL746-750/T790M); assay: Drug wash-out assay; assay type: cell-based
[6] = system: NCI-H1975 tumor xenografts (EGFR L858R/T790M); assay: NCI-H1975 xenograft study; assay type: in vivo, Balb/c nude mice
[7] = system: lung adenocarcinomas driven by EGFR L858R/T790M; assay: Genetically engineered NSCLC model; assay type: in vivo, mice
in vivo = settings: athymic nude, mouse, plasma, oral, 100 mg/kg
[8] = PKC412 225 mg/d for 28 days, solid tumor tissues; cited from earlier work
[9] = system: PC-9/ER xenografts (EGFR del E746_A750/T790M); assay: PC-9/ER xenograft study; settings: for tumor growth: daily oral gavage for 21 days, PKC412 100 mg/kg, WZ4002 25 mg/kg
[10] = target: recombinant EGFR wild-type (Homo sapiens, UniProt P00533); assay: EGFR autophosphorylation assay; assay type: biochemical
[11] = target: EGFR del E746_A750/T790M in NR6 cells (Homo sapiens, UniProt P00533, DEL746-750/T790M); assay: Ligand-induced; assay type: cell-based; settings: 16 hr, TGF-α 15 min
PC-9/ER cells = assay: Anti-proliferative response of erlotinib-resistant PC-9 clone; settings: 10 μM erlotinib
[12] = system: EGFR delE746_A750 mutant lines (PC-9, HCC827, HCC4006); assay: Cell viability assay; assay type: cell-based, human; settings: read-out: IC50 cell viability; 72 hr; 3 NSCLC lines with EGFR delE746_A750
[13] = system: NCI-H1975 cells (EGFR L858R/T790M); assay: Cell viability assay; assay type: cell-based, human; settings: read-out: IC50 cell viability; 72 hr; L858R/T790M mutant line
[14] = system: PC-9 cells (EGFR del E746_A750); assay: EGFR signaling and apoptosis immunoblotting in PC-9 cells; assay type: cell-based, human
[15] = system: HCC827 cells (EGFR del E746_A750); assay: EGFR signaling and apoptosis immunoblotting in HCC827 cells; assay type: cell-based, human
[16] = 1 μM, 72 hr, strong sensitivity defined as greater than 70% growth suppression

Structure (SMILES): CO[C@@H]1[C@H](N(C)C(=O)c2ccccc2)C[C@H]2O[C@]1(C)n1c3ccccc3c3c4c(c5c6ccccc6n2c5c31)C(=O)N[C@H]4O [CGP52421]
- plasma concentration of metabolite [1]: 20000 to 25000 nM

Structure (SMILES): CN(C)CCCn1cc(C2=C(c3c[nH]c4ccccc34)C(=O)NC2=O)c2ccccc21 [bis-indolylmaleimide I]
- effect on growth (PC-9 cells): failed to detectably affect growth
- effect on growth (HCC827 cells; even at high concentrations): failed to detectably affect growth

- inhibition of EGFR T790M autophosphorylation (recombinant EGFR T790M): potently inhibit
- concentrations as low as which inhibit EGFR T790M autophosphorylation (recombinant EGFR T790M): 3 to 30 nM
- inhibition of EGFR L858R/T790M autophosphorylation [2]: potently inhibit
- inhibition of ligand-induced EGFR phosphorylation [3]: similarly potent ability to inhibit
- inhibition of ligand-induced EGFR phosphorylation [4]: not significantly inhibited
- less activity against wild-type EGFR in drug-treated cells than irreversible EGFR inhibitors ([4]; PKC412 versus irreversible EGFR inhibitors): 500 fold
- nature of inhibition (recovery of pEGFR after wash-out) [5]: reversible
- weight loss ([7]; 4 weeks of PKC412 treatment): No significant weight loss
- Cmax (in vivo): 2910 nM
- concentration at 24 h (in vivo): 659 nM
Structure (SMILES): CO[C@@H]1[C@H](N(C)C(=O)c2ccccc2)C[C@H]2O[C@]1(C)n1c3ccccc3c3c4c(c5c6ccccc6n2c5c31)C(=O)NC4 [PKC412]
- EGFR signaling in tumors after the last dosing ([6]; 4 hours after the last dosing): effective suppression of EGFR signaling
- suppression of phospho-EGFR and phospho-AKT in tumors ([6]; daily for 3 days, PKC412 100 or 200 mg/kg, gefitinib 100 mg/kg): Significant suppression
- body weight loss ([6]; daily oral 100 mg/kg): no significant body weight loss
- tumor growth suppression compared to control-treated animals ([6]; day 12, daily oral PKC412 100 mg/kg): 50%
- tumor growth ([7]; 4 weeks of treatment): growth inhibited for the first two weeks of treatment
- phosphorylation of EGFR L858R/T790M in tumors ([7]; treated for 5 days): significant decrease in phosphorylation
- tissue concentration (median) [8]: 593 nM
- EGFR signaling in tumors after the last dosing ([9]; Day 21, 4 hours after the last dosing): effective suppression of EGFR signaling
- body weight loss ([9]; daily oral 100 mg/kg, 21 days): no significant body weight loss
- tumor growth [9]: tumors began to regress; also recorded: significant tumor regression

- inhibition of wild-type EGFR autophosphorylation ([10]; ATP, 15 min): ineffective
- concentrations with detectable inhibition of wild-type EGFR ([10]; autophosphorylation): above 1 micromolar
- inhibition of EGFR T790M autophosphorylation (recombinant EGFR T790M): potent suppression
- concentrations as low as which inhibit EGFR T790M autophosphorylation (recombinant EGFR T790M): 10 nM
- inhibition of EGFR L858R/T790M autophosphorylation [2]: potent suppression
- inhibition of ligand-induced EGFR phosphorylation [3]: similarly potent ability to inhibit
- inhibition of ligand-induced EGFR phosphorylation [11]: most potent inhibitor
- inhibition of ligand-induced EGFR phosphorylation [4]: modestly affected
Structure (SMILES): C=CC(=O)Nc1cccc(Oc2nc(Nc3ccc(N4CCN(C)CC4)cc3OC)ncc2Cl)c1 [WZ4002]
- tumor growth [9]: efficiently inhibited

Structure (SMILES): CN1CCN(c2nc(C3=C(c4c[nH]c5ccccc45)C(=O)NC3=O)c3ccccc3n2)CC1 [sotrastaurin]
- effect on growth (PC-9 cells): failed to detectably affect growth

Structure (SMILES): C#Cc1cccc(Nc2ncnc3cc(OCCOC)c(OCCOC)cc23)c1 [erlotinib]
- anti-proliferative response (PC-9/ER cells): no anti-proliferative response

Structure (SMILES): Cn1c2ccccc2c2c3c(c4c5ccccc5n(CCC#N)c4c21)CNC3=O [Gö6976]
- growth inhibition in cell line screen (PC-9 cells; [16]): strongly growth inhibited
- growth inhibition in cell line screen (HCC827 cells; [16]): strongly growth inhibited
- pIC50 [12]: 6.70 to 7.00
- pIC50 [13]: ~6.10
- apoptosis (PARP cleavage) ([14]; PC-9): promotes apoptosis
- suppression of EGFR signaling ([14]; PC-9, 1 μM): suppressed EGFR signaling as efficiently as erlotinib
- apoptosis (PARP cleavage) ([15]; HCC827): promotes apoptosis
- suppression of EGFR signaling ([15]; HCC827, 1 μM): suppressed EGFR signaling as efficiently as erlotinib
